Paper PMC10218234, “Design, Synthesis and Antitumor Activity of 1H-indazole-3-amine Derivatives” (International Journal of Molecular Sciences, 2023)
Read-outs that look alike come from different tables or passages of the source.

Key:
K562 cells = test: MTT anti-proliferative assay, K562; assay type: cell-based; details: Homo sapiens, read-out: IC50 ± SD, K562
Protocol: (§1) The antiproliferative activity of the target indazole derivatives was evaluated against a panel of human cancer cell lines (human chronic myeloid leukemia cell lines K562; human lung cancer cell lines A549; human prostate cancer cell lines PC-3; human hepatoma cell lines HepG-2) in vitro, and human embryonic kidney cell lines HEK-293 were used to evaluate the cytotoxicity of a normal cell with high activity derivatives by MTT assay. Moreover, 5-fluorouracil (5-Fu), a broad-spectrum drug antitumor drug with therapeutic effects on various cancers, was used as a positive control.
(§2) Lung (A549), chronic myeloid leukemia (K562), prostate (PC3), and live (Hep-G2) cells were purchased from the Cell Bank of the Chinese Academy of Sciences (Kunming, China). A549, K562, and PC-3 cells were cultured in RPMI-1640 medium and the liver cells Hep-G2 were cultured in MEM medium. All mediums were supplemented with 10% FBS, 100 μg/mL penicillin and 100 μg/mL streptomycin. All cells were cultivated in a 5% CO2 incubator at 37 °C.
(§3) To investigate the anticancer activity of indazole derivatives, A549, K562, PC3, and Hep-G2 cells were treated with targets compounds respectively for 48 h in a range of concentrations (from 0.625 to 10 μM) and subjected to a proliferation assay using the MTT assay. Exponentially growing cells were seeded at a density of 5000 cells per well in 96-well plates containing 100 μL of fresh growth medium. After allowing the cells to attach for 24 h, target compounds were added. After incubation for 48 h, viable cells were stained with MTT (0.5 mg/mL) for 4 h, and the produced formazan crystals were dissolved with 150 µL of dimethyl sulfoxide. Absorbance was measured at 490 nm using an automated microplate reader (Tecan, Infinite M200 Pro, Männedorf, Switzerland). The relative cell viability was calculated according to the following equation: Cell viability%=experimental OD value/control OD value×100%Cell inhibition%=control OD value−experimental OD value/control OD value×100%
(§4) Cell inhibition%=control OD value−experimental OD value/control OD value×100%

Hep-G2 cells = test: MTT anti-proliferative assay, Hep-G2; assay type: cell-based; details: Homo sapiens, HepG2, 48 h, read-out: IC50 ± SD, Hep-G2
Protocol: as §1, §2, §3, §4

PC-3 cells = test: MTT anti-proliferative assay, PC-3; assay type: cell-based; details: Homo sapiens, PC-3, 48 h
Protocol: as §1, §2
as §3, with “Exponentially” for “To investigate the anticancer activity of indazole derivatives, A549, K562, PC3, and Hep-G2 cells were treated with targets compounds respectively for 48 h in a range of concentrations (from 0.625 to 10 μM) and subjected to a proliferation assay using the MTT assay. Exponentially”
as §4

A549 cells = test: MTT anti-proliferative assay, A549; assay type: cell-based; details: Homo sapiens, read-out: IC50 ± SD, A549
Protocol: as §1, §2, §3, §4

[1] = Table 2, read-out: IC50 ± SD, PC-3
[2] = Table 1, read-out: IC50 ± SD, PC-3

IC50 (K562 cells; Table 2, 48 h) [µM]	IC50 (Hep-G2 cells; Table 2, 48 h) [µM]	melting point [°C]	IC50 (PC-3 cells; [1]) [µM]	IC50 (A549 cells; Table 2, 48 h) [µM]	IC50 (K562 cells; Table 1, 48 h) [µM]	IC50 (Hep-G2 cells; Table 1, 48 h) [µM]	IC50 (PC-3 cells; [2]) [µM]	IC50 (A549 cells; Table 1, 48 h) [µM]	SMILES
6.61 ± 0.38	2.35 ± 0.96	170 to 171	6.81 ± 1.09	15.8 ± 2.98	–	–	–	–	O=C(CN1CCN(c2ccc(C(F)(F)F)cc2)CC1)Nc1n[nH]c2ccc(-c3cc(F)cc(F)c3)cc12 [6g]
11.1 ± 0.69	1.98 ± 0.35	194 to 197	19 ± 0.58	40.9 ± 6.54	–	–	–	–	N#Cc1ccc(N2CCN(CC(=O)Nc3n[nH]c4ccc(-c5ccc(Cl)c(Cl)c5)cc34)CC2)cc1 [6t]
18.2 ± 2.91	> 50	187 to 189	17.6 ± 1.4	17.6 ± 4.11	–	–	–	–	COc1ccc(-c2ccc3[nH]nc(NC(=O)CN4CCN(c5ccc(C(F)(F)F)cc5)CC4)c3c2)cc1 [6d]
5.19 ± 0.29	5.62 ± 1.76	–	6.12 ± 0.1	8.21 ± 0.56	–	–	–	–	O=C(CN1CCN(c2ccc(Cl)c(Cl)c2)CC1)Nc1n[nH]c2ccc(-c3cccc(F)c3)cc12 [compound 6a]
11.2 ± 0.56	1.61 ± 0.28	180 to 182	4.25 ± 0.13	7.83 ± 1.06	–	–	–	–	O=C(CN1CCN(c2ccccc2)CC1)Nc1n[nH]c2ccc(-c3cc(F)cc(F)c3)cc12 [6k]
17.9 ± 3.14	1.51 ± 0.25	–	19.9 ± 2.71	22.6 ± 6.53	–	–	–	–	O=C(CN1CCN(c2ccc(Cl)c(Cl)c2)CC1)Nc1n[nH]c2ccc(-c3ccc(Cl)c(F)c3)cc12 [6m]
10.8 ± 0.68	2.92 ± 1.41	179 to 182	20.3 ± 4.71	20.4 ± 8.08	–	–	–	–	O=C(CN1CCN(c2ccc(Cl)cc2)CC1)Nc1n[nH]c2ccc(-c3ccc(Cl)c(Cl)c3)cc12 [6s]
10 ± 0.94	> 50	–	27.9 ± 26.1	15.8 ± 1.38	–	–	–	–	O=C(CN1CCN(c2ccc(Br)cc2)CC1)Nc1n[nH]c2ccc(-c3ccc(Cl)c(Cl)c3)cc12 [6r]
8.85 ± 0.26	> 50	140 to 141	7.15 ± 0.14	12.8 ± 0.78	–	–	–	–	COc1ccc(-c2ccc3[nH]nc(NC(=O)CN4CCN(Cc5ccc(Cl)cc5)CC4)c3c2)cc1 [6e]
> 50	1.23 ± 0.39	188 to 189	> 50	24 ± 2.92	–	–	–	–	COc1ccc(-c2ccc3[nH]nc(NC(=O)CN4CCN(c5ccc(OC)cc5)CC4)c3c2)cc1 [6c]
13.2 ± 1.75	2.75 ± 0.78	–	8.63 ± 0.57	15.1 ± 1.36	–	–	–	–	O=C(CN1CCN(c2ccc(F)cc2F)CC1)Nc1n[nH]c2ccc(-c3cc(F)cc(F)c3)cc12 [6h]
11.9 ± 0.85	9.56 ± 0.84	–	41.7 ± 27.9	> 50	–	–	–	–	O=C(CN1CCN(c2ccc(Cl)c(Cl)c2)CC1)Nc1n[nH]c2ccc(-c3cc(F)cc(F)c3)cc12 [6f]
–	–	–	–	–	14.3 ± 2.13	6.3 ± 0.03	7.81 ± 0.64	16.2 ± 1.46	O=C(CSc1ncccn1)Nc1n[nH]c2ccc(-c3cc(F)cc(F)c3)cc12 [5q]
13.3 ± 1.4	4.76 ± 0.63	174 to 176	34.8 ± 4.37	18.7 ± 3.1	–	–	–	–	COc1ccc(N2CCN(CC(=O)Nc3n[nH]c4ccc(-c5ccc(Cl)c(F)c5)cc34)CC2)cc1 [6n]
–	–	–	–	–	9.32 ± 0.59	12.7 ± 1.31	15.5 ± 1.33	4.66 ± 0.45	COc1ccc(SCC(=O)Nc2n[nH]c3ccc(-c4cccc(F)c4)cc23)cc1 [compound 5a]

The next lines start with the compound.

SMILES	IC50 (K562 cells; Table 2, 48 h) [µM]	IC50 (Hep-G2 cells; Table 2, 48 h) [µM]	melting point [°C]	IC50 (PC-3 cells; [1]) [µM]	IC50 (A549 cells; Table 2, 48 h) [µM]	IC50 (K562 cells; Table 1, 48 h) [µM]	IC50 (Hep-G2 cells; Table 1, 48 h) [µM]	IC50 (PC-3 cells; [2]) [µM]	IC50 (A549 cells; Table 1, 48 h) [µM]
O=C(CSc1ccc(F)cc1)Nc1n[nH]c2ccc(-c3ccc(Cl)c(F)c3)cc12 [5g]	–	–	178 to 200	–	–	10.3 ± 1.14	11.9 ± 0.72	18.6 ± 5.73	6.4 ± 0.26
COc1ccc(SCC(=O)Nc2n[nH]c3ccc(-c4ccc(OC(F)(F)F)cc4)cc23)cc1 [5f]	–	–	215 to 216	–	–	> 50	> 50	12.5 ± 4.55	4.48 ± 0.24
O=C(CSc1cccc(Cl)c1)Nc1n[nH]c2ccc(-c3cc(F)cc(F)c3)cc12 [5n]	–	–	193 to 194	–	–	7.25 ± 1.07	6.57 ± 0.13	> 50	20 ± 1.19
O=C(CSc1ccccc1Br)Nc1n[nH]c2ccc(-c3cccc(F)c3)cc12 [5d]	–	–	–	–	–	27.2 ± 0.66	45.9 ± 2.24	19.7 ± 2.38	16.6 ± 3.22
O=C(CSc1ccc([N+](=O)[O-])cc1)Nc1n[nH]c2ccc(-c3cc(F)cc(F)c3)cc12 [5o]	–	–	–	–	–	8.09 ± 1.27	8.3 ± 0.56	12.5 ± 2.1	6.64 ± 0.47
COc1ccc(SCC(=O)Nc2n[nH]c3ccc(-c4ccc(F)cc4)cc23)cc1 [5e]	–	–	–	–	–	> 50	8.2 ± 0.91	12.8 ± 3.09	7.23 ± 0.4
O=C(CSc1ccccc1Br)Nc1n[nH]c2ccc(-c3cc(F)cc(F)c3)cc12 [5l]	–	–	199 to 200	–	–	8.19 ± 1.43	14.9 ± 0.77	> 50	14.1 ± 1.71
O=C(CSc1ccc([N+](=O)[O-])cc1)Nc1n[nH]c2ccc(-c3ccc(Cl)c(F)c3)cc12 [5i]	–	–	243 to 246	–	–	6.27 ± 1.22	5.5 ± 0.17	6.57 ± 1.1	4.43 ± 0.15
O=C(CSc1ccc(Br)cc1)Nc1n[nH]c2ccc(-c3cccc(F)c3)cc12 [5c]	–	–	–	–	–	9.33 ± 0.64	4.76 ± 0.63	60.7 ± 2.91	5.63 ± 0.59
O=C(CSc1ccc(F)cc1)Nc1n[nH]c2ccc(-c3cccc(F)c3)cc12 [5b]	–	–	–	–	–	6.97 ± 0.99	> 50	38.4 ± 24.1	5.25 ± 0.57
O=C(CSc1ccncc1)Nc1n[nH]c2ccc(-c3cc(F)cc(F)c3)cc12 [5p]	–	–	–	–	–	15.42 ± 0.15	7.14 ± 0.33	22.5 ± 9.13	16 ± 0.37
